The target in this assay is T1, DYRK2 (Homo sapiens, UniProt Q92630).
T1 construct: purchased Thermo Fisher Scientific (Life Technologies) SelectScreen
Briefly: SelectScreen LanthaScreen. The format is binding. The note with it: read-out: % displacement. In outline: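 SelectScreen broad panel; activity (Z'LYTE, Adapta) plus binding formats. ATP: Km app for CSF1R Z'LYTE; 10 for CAMK1 Adapta. Readout = % per kinase.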
Background: In TR-FRET formats the signal depends on donor and acceptor labels being close together.

Structures are written as SMILES.

T1 sequence (Q92630 whole entry): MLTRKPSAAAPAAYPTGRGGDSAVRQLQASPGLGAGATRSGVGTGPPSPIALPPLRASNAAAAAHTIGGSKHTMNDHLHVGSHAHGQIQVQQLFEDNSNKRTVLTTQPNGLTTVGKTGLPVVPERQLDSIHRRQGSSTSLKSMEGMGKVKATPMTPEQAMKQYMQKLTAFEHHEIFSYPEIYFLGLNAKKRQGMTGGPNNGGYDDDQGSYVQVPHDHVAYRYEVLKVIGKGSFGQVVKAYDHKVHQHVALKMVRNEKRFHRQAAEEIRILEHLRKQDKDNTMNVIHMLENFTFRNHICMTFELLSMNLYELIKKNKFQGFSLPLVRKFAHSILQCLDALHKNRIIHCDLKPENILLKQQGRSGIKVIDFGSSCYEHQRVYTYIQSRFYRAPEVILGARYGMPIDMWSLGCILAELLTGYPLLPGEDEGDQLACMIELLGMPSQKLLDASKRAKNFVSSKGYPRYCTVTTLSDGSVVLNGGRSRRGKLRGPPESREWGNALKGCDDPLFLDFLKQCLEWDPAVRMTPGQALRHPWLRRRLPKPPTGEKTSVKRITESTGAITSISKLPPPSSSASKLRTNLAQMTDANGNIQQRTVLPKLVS

Take `CN(C(=O)CN1CCOCC1)c1ccc2sc3c(-c4cccc5c(=O)cc(N6CC7CCC(C6)O7)oc45)cccc3c2c1` [NU5455]: the inhibition at 1 µM amounted to 5%.
